compound: COc1cc2nc(N3CCCN(C)CC3)nc(NC3CCN(Cc4ccccc4)CC3)c2cc1OC + CS(=O)(=O)N1CCN(Cc2cc3nc(-c4cccc5[nH]ncc45)nc(N4CCOCC4)c3s2)CC1 [Pictilisib] (partner 1 µM); experiment: relative viability (nuclei count vs DMSO), 5 days (fraction); higher = more cells survive; conditions: first compound 0.2 µM
In short: (§1)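 Relative viability is defined as nuclei in treated wells over nuclei in vehicle wells. Duplicate plates were run and medians reported. Lung cancer cell lines in 1536-well plates were dosed by pin tool one day after seeding, with one drug or with a fixed anchor-drug dose plus five library-drug doses (not always all listed) in √10 steps, and nuclei were counted after 5 days.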

Row | Cell Line | relative viability
1 | NCI-H1299 | 0.734
2 | CAL-12T | 0.402
3 | NCI-H1651 | 0.638
4 | EPLC-272H | 0.314
5 | NCI-H2228 | 0.385
6 | NCI-H1792 | 0.299
7 | NCI-H1355 | 0.434
8 | NCI-H3122 | 0.589
9 | NCI-H1437 | 0.436
10 | NCI-H1755 | 0.423
11 | NCI-H2023 | 0.204
12 | HCC-15 | 0.744
13 | NCI-H1793 | 0.317
14 | PC-14 | 0.676
15 | EKVX | 0.466
16 | LC-2-ad | 0.481
17 | NCI-H1563 | 0.566
18 | NCI-H1944 | 0.342
19 | NCI-H1975 | 0.276
20 | RERF-LC-KJ | 0.458
21 | ABC-1 | 0.618
22 | NCI-H358 | 0.368
23 | NCI-H650 | 0.959
24 | PC-3 [JPC-3] | 0.721

same assay, conditions: first compound 0.6325 µM

Row | Cell Line | relative viability
25 | NCI-H1299 | 0.777
26 | NCI-H647 | 0.583
27 | CAL-12T | 0.53
28 | NCI-H1651 | 0.591
29 | EPLC-272H | 0.439
30 | NCI-H2228 | 0.256
31 | NCI-H1792 | 0.233
32 | NCI-H1355 | 0.442
33 | NCI-H3122 | 0.634
34 | NCI-H1437 | 0.496
35 | NCI-H1755 | 0.425
36 | NCI-H2023 | 0.279
37 | HCC-15 | 0.883
38 | NCI-H1793 | 0.342
39 | PC-14 | 0.541
40 | EKVX | 0.46
41 | LC-2-ad | 0.467
42 | NCI-H1563 | 0.622
43 | NCI-H1944 | 0.365
44 | NCI-H1975 | 0.313
45 | RERF-LC-KJ | 0.559
46 | ABC-1 | 0.926
47 | NCI-H358 | 0.422
48 | NCI-H650 | 0.707
49 | PC-3 [JPC-3] | 0.763

same assay, conditions: first compound 2 µM

Row | Cell Line | relative viability
50 | NCI-H1299 | 1.05
51 | NCI-H647 | 0.567
52 | CAL-12T | 0.388
53 | NCI-H1651 | 0.73
54 | EPLC-272H | 0.303
55 | NCI-H2228 | 0.405
56 | NCI-H1792 | 0.247
57 | NCI-H1355 | 0.472
58 | NCI-H3122 | 0.601
59 | NCI-H1437 | 0.49
60 | NCI-H1755 | 0.377
61 | NCI-H2023 | 0.211
62 | HCC-15 | 0.701
63 | NCI-H1793 | 0.282
64 | PC-14 | 0.838
65 | EKVX | 0.357
66 | LC-2-ad | 0.534
67 | NCI-H1563 | 0.558
68 | NCI-H1975 | 0.332
69 | RERF-LC-KJ | 0.585
70 | ABC-1 | 0.699
71 | NCI-H358 | 0.348
72 | NCI-H650 | 1.03
73 | PC-3 [JPC-3] | 0.6

same assay, conditions: first compound 6.325 µM

Row | Cell Line | relative viability
74 | NCI-H1299 | 0.649
75 | NCI-H647 | 0.254
76 | CAL-12T | 0.34
77 | NCI-H1651 | 0.462
78 | EPLC-272H | 0.305
79 | NCI-H2228 | 0.175
80 | NCI-H1792 | 0.276
81 | NCI-H1355 | 0.476
82 | NCI-H3122 | 0.478
83 | NCI-H1437 | 0.323
84 | NCI-H1755 | 0.317
85 | NCI-H2023 | 0.0903
86 | HCC-15 | 0.618
87 | NCI-H1793 | 0.372
88 | PC-14 | 0.239
89 | EKVX | 0.4
90 | LC-2-ad | 0.473
91 | NCI-H1563 | 0.55
92 | NCI-H1944 | 0.336
93 | NCI-H1975 | 0.248
94 | RERF-LC-KJ | 0.579
95 | ABC-1 | 0.611
96 | NCI-H358 | 0.269
97 | NCI-H650 | 0.562
98 | PC-3 [JPC-3] | 0.805

compound: Cc1cc([C@@H](C)Nc2ccccc2C(=O)O)c2nc(N3CCOCC3)cc(=O)n2c1 [AZD6482] + CS(=O)(=O)CCNCc1ccc(-c2ccc3ncnc(Nc4ccc(OCc5cccc(F)c5)c(Cl)c4)c3c2)o1 [Lapatinib] (partner 2 µM); experiment: as above; conditions: first compound 0.08 µM
In short: as §1

Row | Cell Line | relative viability
99 | NCI-H1299 | 0.94
100 | NCI-H647 | 0.843
101 | CAL-12T | 0.601
102 | NCI-H1651 | 0.776
103 | EPLC-272H | 0.812
104 | NCI-H2228 | 0.834
105 | NCI-H1792 | 0.814
106 | NCI-H1355 | 0.694
107 | NCI-H3122 | 0.965
108 | NCI-H1437 | 0.727
109 | NCI-H1755 | 0.955
110 | NCI-H2023 | 0.729

From the supplement of paper PMC10307832
